Data on two compounds can be found in US4239752A, “O-Demethylseldomycin factor 5 derivatives” (Abbott Laboratories, priority 1979, dated 1980).

Test [1] has as its system Pseudomonas aeruginosa PST. As to the kind of experiment: in vitro antibiotic activity, two fold dilution test (MIC). As to conditions: Streptomycin Assay Agar with yeast extract, pH 7.9, inoculum approx. 1×10^5. Type of test: cell-based. The protocol:
(§1) The in vitro antibiotic activity is determined by a two fold dilution test using Streptomycin Assay Agar with yeast extract (at pH 7.9). The inoculum of approximately 1×10^5 of the indicated test organism is delivered by a multiple inoculator. The minimum inhibitory concentrations for a representative compound, O-demethyl-3'-deoxyseldomycin factor 5 is set forth in Table II. The minimum inhibitory concentrations are expressed in micrograms per milliliter.

In a further test the test system is Escherichia coli R16. The test is described as above. As to conditions: Streptomycin Assay Agar with yeast extract, pH 7.9, inoculum approx. 1×10^5. It is filed as cell-based. The protocol: as §1
For another test, the system named is Escherichia coli R5. The description is as above. Type of test: cell-based. As to conditions: Streptomycin Assay Agar with yeast extract, pH 7.9, inoculum approx. 1×10^5. The protocol: as §1
The subject of another test is Eschericha coli ATCC 26. The description is as above. It is filed as cell-based. As to conditions: Streptomycin Assay Agar with yeast extract, pH 7.9, inoculum approx. 1×10^5. The protocol:
as §1

The test system of test [2] is Bacillus subtilis U. of Ill. 10707. The description is as above. It is filed as cell-based. As to conditions: Streptomycin Assay Agar with yeast extract, pH 7.9, inoculum approx. 1×10^5. The protocol: as §1
Test [3] relates to Proteus vulgaris ATCC 6897. The test is described as above. The following applies: ATCC6897, Streptomycin Assay Agar with yeast extract, pH 7.9, inoculum approx. 1×10^5. Type of test: cell-based. The protocol:
as §1

Test [4] deals with Klebsiella pneumoniae ATCC 10031. The test is described as above. As to conditions: ATCC10031, Streptomycin Assay Agar with yeast extract, pH 7.9, inoculum approx. 1×10^5. It is filed as cell-based. The protocol:
as §1

A further test deals with Escherichia coli R3. The description is as above. As to conditions: Streptomycin Assay Agar with yeast extract, pH 7.9, inoculum approx. 1×10^5. Type of test: cell-based. The protocol:
as §1

The subject of test [5] is Pseudomonas aeruginosa BMH#1. The description is as above. It is filed as cell-based. The following applies: Streptomycin Assay Agar with yeast extract, pH 7.9, inoculum approx. 1×10^5. The protocol: as §1
Another test relates to Escherichia coli 76-2. The test is described as above. As to conditions: 762, Streptomycin Assay Agar with yeast extract, pH 7.9, inoculum approx. 1×10^5. Type of test: cell-based. The protocol:
as §1

The subject of the next test is Escherichia coli NR 79. The test is described as above. It is filed as cell-based. The following applies: NR79, Streptomycin Assay Agar with yeast extract, pH 7.9, inoculum approx. 1×10^5. The protocol:
as §1

The subject of test [6] is Staphylococcus aureus ATCC 6538P. The description is as above. As to conditions: ATCC6538P, Streptomycin Assay Agar with yeast extract, pH 7.9, inoculum approx. 1×10^5. It is filed as cell-based. The protocol:
as §1

A further test relates to Escherichia coli R19. Described as above. The following applies: Streptomycin Assay Agar with yeast extract, pH 7.9, inoculum approx. 1×10^5. Type of test: cell-based. The protocol:
as §1

In test [7] the test system is Pseudomonas aeruginosa KY-8512. The test is described as above. Type of test: cell-based. The following applies: KY8512, Streptomycin Assay Agar with yeast extract, pH 7.9, inoculum approx. 1×10^5. The protocol: as §1
The test system of test [8] is Proteus stuartii ATCC 25825. The test is described as above. Type of test: cell-based. The following applies: Streptomycin Assay Agar with yeast extract, pH 7.9, inoculum approx. 1×10^5. The protocol: as §1
Test [9] concerns Gram-positive and Gram-negative organisms. The following applies: Staphylococcus aureus, Klebsiella pneumoniae, Escherchia coli and Proteus species; cited from earlier work.

SMILES strings stand for the structures. Values after ≈ are worked out from the molar mass of the structure shown.

What is called MIC is the smallest concentration in the dilution series that meets the test's criterion for growth inhibition. As to `NC[C@@H]1CC[C@@H](N)[C@@H](O[C@H]2[C@H](O)[C@@H](OC3OCC(O)C(N)C3N)[C@H](N)C[C@@H]2N)O1` (stereo partly shown) [O-demethyl-3'-deoxyseldomycin factor 5, O-Demethyl-3'-deoxyseldomycin factor 5], the MIC was 720 µg/mL (≈ 1710 µM) in [1]; 0.4 µg/mL (≈ 0.951 µM) against Escherichia coli R16; 0.8 µg/mL (≈ 1.9 µM) with Escherichia coli R5; 0.16 µg/mL (≈ 0.38 µM) in the test with Eschericha coli ATCC 26; 0.01 µg/mL (≈ 0.0238 µM) in test [2]; 0.31 µg/mL (≈ 0.737 µM) in [3]. In addition, the MIC in test [4] stood at 0.04 µg/mL (≈ 0.0951 µM); in the test with Escherichia coli R3 it was 2.5 µg/mL (≈ 5.95 µM); in [5] it was 0.63 µg/mL (≈ 1.5 µM); with Escherichia coli 76-2, 0.16 µg/mL (≈ 0.38 µM); in the test with Escherichia coli NR 79 it was 0.16 µg/mL (≈ 0.38 µM); in test [6] it was 0.02 µg/mL (≈ 0.0476 µM). Besides, the results for the MIC (against Escherichia coli R19; in test [7]; in test [8]) were 0.16 µg/mL (≈ 0.38 µM), 1.25 µg/mL (≈ 2.97 µM) and 2.5 µg/mL (≈ 5.95 µM), respectively.

As to `COC1COC(O[C@@H]2[C@@H](O)[C@H](O[C@H]3O[C@H](CN)C[C@H](O)[C@H]3N)[C@@H](N)C[C@H]2N)C(N)C1N` (stereo partly shown) [Seldomycin factor 5], in test [9], the antibiotic activity result is “highly active, broad-spectrum antibiotic effective against both Gram-positive and Gram-negative organisms”.
